Results from patent US9345243B2, “Chemicals composition for reducing stress on plant” (Nippon Soda Co., Ltd., priority 2012, dated 2016).

What was measured:
[1] = tested on: Cucumber (breed: Sagamihanjiro); experiment: Relief effects of salt injury on cucumber (Test Example 8); conditions: spray, 0.1% sodium chloride irrigation from 3 days, above ground raw weight at 20 days, ascorbyl palmitate 600 ppm, imidacloprid 50 ppm, pymetrozine 100 ppm, cyenopyrafen 150 ppm, pyraclostrobin 50 ppm, normal irrigation = 100
Procedure: Cucumber (breed: Sagamihanjiro, 2 replications) hydroponically grown up to the 1.5 leaf stage in a greenhouse was prepared.
A water dispersible granule of 30% ascorbyl palmitate and a commercially available product containing the substance (B) described in Table 14 were diluted with tap water into a concentration described in Table 14, and the diluted solution was sprayed over the nursery plats in a sufficient amount. After air dried, they were cultivated in a greenhouse with normal irrigation. Irrigation was changed to 0.1% aqueous sodium chloride solution at the elapsed time of 3 days after the spraying, and cultivated. The raw weight of an above ground part was measured at the elapsed time of 20 days after the spraying. From this, injury relief percentages were computed by the following formula.

[2] = tested on: Tomato (breed: Momotaro); experiment: Relief effects of high temperature injury on tomato (Test Example 3); conditions: spray, 40° C. daylight / 30° C. dark, 4 days, ascorbyl palmitate 600 ppm, thiophanate-methyl 467 ppm, boscalid 333 ppm, cyflufenamid 17 ppm + triflumizole 75 ppm
Procedure: Tomato (breed: Momotaro, 2 replications) grown up to the 4 leaf stage in a greenhouse was prepared.
A water dispersible granule of 30% ascorbyl palmitate and a commercially available agent containing the substance (B) as described in Table 8 were diluted with tap water into a concentration described in Table 8, and the diluted solution was sprayed over the whole nursery plants in a sufficient amount. After air dried, they were allowed to grow under cycle conditions of 16 hours under a daylight condition at 40° C. and 8 hours under a dark condition at 30° C. The degree of disorders was investigated at an elapsed time of 4 days after the spraying.
The degree of necrosis due to high temperature was evaluated by 11 levels of disorder indices from 0 (no necrosis) to 10 (withering to death). From this, the injury relief percentages were computed by the following formula.

Row | Compound | relief percents of injury (%) [1] [%] | relief percents of injury (%) [2] [%]
1 | O=[N+]([O-])NC1=NCCN1Cc1ccc(Cl)nc1 [Imidacloprid] | 33 | –
2 | COC(=O)NC(=S)Nc1ccccc1NC(=S)NC(=O)OC [Thiophanate-methyl] | – | 40
3 | Cc1nn(C)c(/C(OC(=O)C(C)(C)C)=C(\C#N)c2ccc(C(C)(C)C)cc2)c1C [cyenopyrafen] | 51 | –
4 | CC1=NNC(=O)N(/N=C/c2cccnc2)C1 [Pymetrozine] | 53 | –
5 | O=C(Nc1ccccc1-c1ccc(Cl)cc1)c1cccnc1Cl [Boscalid] | – | 40
6 | CCCCCCCCCCCCCCCC(=O)OC[C@H](O)[C@H]1OC(=O)C(O)=C1O [ascorbyl palmitate] | 53 | 40
7 | COC(=O)N(OC)c1ccccc1COc1ccn(-c2ccc(Cl)cc2)n1 [Pyraclostrobin] | 77 | –
